Test results taken from patent US20190185518A9, “WARHEAD-CONTAINING PEPTIDOMIMETIC MACROCYCLES AS MODULATORS OF BFL-1” (AILERON Therapeutics, Inc., priority 2017, published 2019).
Starred links: 1 amine or outer side, 2 acyl side, 3 side chain; linkers in the order of their positions; H or OH if unused. Positions of bridges follow the written chain, without caps; N, C: chain ends. Non-standard residues stand in square brackets, D forms with d. Residues, ends and D or L forms follow the SMILES beside them. X1 = CC(C)CCC[C@H](N[*:1])C(=O)[*:2]; R8 = C=CCCCCCC[C@@](C)(N)C(=O)O; S5 = C=CCCC[C@](C)(N)C(=O)O; Ac6c = NC1(C(=O)O)CCCCC1; Ac5c = NC1(C(=O)O)CCCC1

How the values were obtained:
[1] = biological target: Bcl-xL (Homo sapiens, UniProt Q07817); assay: Ki determination for Bcl-xL (BCL-2 family binding spectrum); conditions: read-out: Ki BCL-XL
From the text: (§1) To assess the binding and affinity of compounds that antagonize the interaction between a peptide and an acceptor protein, a fluorescence polarization assay (FPA) utilizing a fluoresceinated peptidomimetic macrocycle derived from a peptidomimetic precursor sequence is used, for example. The FPA technique measures the molecular orientation and mobility using polarized light and fluorescent tracer. […] A compound that antagonizes the interaction between the fluoresceinated peptidomimetic macrocycle and an acceptor protein will be detected in a competitive binding FPA experiment.
For example, putative antagonist compounds (1 nM to 1 mM) and a fluoresceinated peptidomimetic macrocycle (25 nM) are incubated with the acceptor protein (50 nM) in binding buffer (140 mM NaCl, 50 mM Tris-HCL, pH 7.4) for 30 minutes at room temperature. Antagonist binding activity is measured, for example, by fluorescence polarization on a luminescence spectrophotometer (e.g. Perkin-Elmer LS50B). Kd values may be determined by nonlinear regression analysis using, for example, Graphpad Prism software (GraphPad Software, Inc., San Diego, Calif.).

[2] = biological target: Mcl-1 (Homo sapiens, UniProt Q07820); assay: Ki determination for Mcl-1 (BCL-2 family binding spectrum); conditions: read-out: Ki MCL-1
From the text: as §1
Antagonist binding activity is measured, for example, by fluorescence polarization on a luminescence spectrophotometer (e.g. Perkin-Elmer LS50B). Kd values may be determined by nonlinear regression analysis using, for example, Graphpad Prism software (GraphPad Software, Inc., San Diego, Calif.).

Chain of Mcl-1 (Q07820 whole entry, species assumed): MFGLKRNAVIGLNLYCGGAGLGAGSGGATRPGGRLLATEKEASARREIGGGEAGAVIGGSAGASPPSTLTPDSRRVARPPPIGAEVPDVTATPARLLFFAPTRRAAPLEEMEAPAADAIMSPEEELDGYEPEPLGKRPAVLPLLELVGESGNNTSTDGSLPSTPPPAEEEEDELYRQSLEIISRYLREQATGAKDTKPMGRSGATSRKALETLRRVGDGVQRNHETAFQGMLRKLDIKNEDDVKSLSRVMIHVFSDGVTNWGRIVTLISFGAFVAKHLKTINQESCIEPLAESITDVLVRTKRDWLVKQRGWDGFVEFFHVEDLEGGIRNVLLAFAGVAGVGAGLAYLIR
Chain of Bcl-xL (Q07817 whole entry, species assumed): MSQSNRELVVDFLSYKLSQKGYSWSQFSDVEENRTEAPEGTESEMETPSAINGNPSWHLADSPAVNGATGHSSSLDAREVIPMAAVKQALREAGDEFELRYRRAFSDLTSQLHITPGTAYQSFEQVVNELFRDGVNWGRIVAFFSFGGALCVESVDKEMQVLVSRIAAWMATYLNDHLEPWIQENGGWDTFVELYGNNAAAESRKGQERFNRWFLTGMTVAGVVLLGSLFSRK

Structure (SMILES)	Ki [1] [nM]	Ki [2] [nM]
CC[C@H](C)[C@H](NC(C)=O)C(=O)N[C@@H](Cc1c[nH]c2ccccc12)C(=O)N[C@H](C(=O)N[C@@H](C)C(=O)N[C@@H](C)C(=O)N[C@@H](C)C(=O)N[C@@H](CC(C)C)C(=O)N[C@@H](CCCNC(=N)N)C(=O)N[C@]1(C)CCCCCCC=CCCC[C@@](C)(C(=O)N[C@@H](Cc2ccc(O)cc2)C(=O)N[C@@H](Cc2ccc(O)cc2)C(=O)N[C@@H](C)C(N)=O)NC(=O)[C@H](CC(N)=O)NC(=O)[C@H](Cc2ccccc2)NC(=O)[C@H](C)NC(=O)[C@H](CC(=O)O)NC(=O)CNC(=O)[C@H]([C@@H](C)CC)NC1=O)[C@@H](C)CC [compound 1653] (Ac-IWIAAALR[R8]IGDAFN[S5]YYA-NH2; staple 9-16)	25.6	–
CC[C@H](C)[C@H](NC(C)=O)C(=O)N[C@@H](Cc1c[nH]c2ccccc12)C(=O)N[C@H](C(=O)N[C@@H](C)C(=O)N[C@@H](CCC(N)=O)C(=O)N[C@@H](C)C(=O)N[C@@H](C)C(=O)N[C@@H](CCCNC(=N)N)C(=O)N[C@]1(C)CCCCCCC=CCCC[C@@](C)(C(=O)N[C@@H](Cc2ccc(O)cc2)C(=O)N[C@@H](Cc2ccc(O)cc2)C(=O)N[C@@H](C)C(N)=O)NC(=O)[C@H](CC(N)=O)NC(=O)[C@H](C)NC(=O)[C@H](C)NC(=O)[C@H](CC(=O)O)NC(=O)CNC(=O)[C@H]([C@@H](C)CC)NC1=O)[C@@H](C)CC [compound 1664] (Ac-IWIAQAAR[R8]IGDAAN[S5]YYA-NH2; staple 9-16)	154	–
CC[C@H](C)[C@H](NC(C)=O)C(=O)N[C@@H](Cc1c[nH]c2ccccc12)C(=O)N[C@H](C(=O)N[C@@H](C)C(=O)N[C@@H](CCC(N)=O)C(=O)N[C@@H](C)C(=O)N[C@@H](CC(C)C)C(=O)N[C@@H](CCCNC(=N)N)C(=O)N[C@]1(C)CCCCCCC=CCCC[C@@](C)(C(=O)N[C@@H](Cc2ccc(O)cc2)C(=O)N[C@@H](Cc2ccc(O)cc2)C(=O)N[C@@H](C)C(N)=O)NC(=O)[C@H](CC(N)=O)NC(=O)[C@H](Cc2ccccc2)NC(=O)[C@H](CCC(N)=O)NC(=O)[C@H](CC(=O)O)NC(=O)CNC(=O)[C@H](Cc2ccccc2)NC1=O)[C@@H](C)CC [compound 1670] (Ac-IWIAQALR[R8]FGDQFN[S5]YYA-NH2; staple 9-16)	25.6	–
CC[C@H](C)[C@H](NC(C)=O)C(=O)N[C@@H](Cc1c[nH]c2ccccc12)C(=O)N[C@@H](Cc1ccccc1)C(=O)N[C@@H](C)C(=O)N[C@@H](CCC(N)=O)C(=O)N[C@@H](C)C(=O)N[C@@H](CC(C)C)C(=O)N[C@@H](CCCNC(=N)N)C(=O)N[C@]1(C)CCCCCCC=CCCC[C@@](C)(C(=O)N[C@@H](Cc2ccc(O)cc2)C(=O)N[C@@H](Cc2ccc(O)cc2)C(=O)N[C@@H](C)C(N)=O)NC(=O)[C@H](CC(N)=O)NC(=O)[C@H](Cc2ccccc2)NC(=O)[C@H](CCC(N)=O)NC(=O)[C@H](CC(=O)O)NC(=O)CNC(=O)[C@H]([C@@H](C)CC)NC1=O [compound 1672] (Ac-IWFAQALR[R8]IGDQFN[S5]YYA-NH2; staple 9-16)	25.9	–
CC[C@H](C)[C@H](NC(C)=O)C(=O)N[C@@H](CC(=O)O)C(=O)N[C@H](C(=O)N[C@@H](C)C(=O)N[C@@H](C)C(=O)N[C@@H](C)C(=O)N[C@@H](CC(C)C)C(=O)N[C@@H](CCCNC(=N)N)C(=O)N[C@]1(C)CCCCCCC=CCCC[C@@](C)(C(=O)N[C@@H](Cc2ccc(O)cc2)C(=O)N[C@@H](Cc2ccc(O)cc2)C(=O)N[C@@H](C)C(N)=O)NC(=O)[C@H](CC(N)=O)NC(=O)[C@H](Cc2ccccc2)NC(=O)[C@H](C)NC(=O)[C@H](CC(=O)O)NC(=O)CNC(=O)[C@H]([C@@H](C)CC)NC1=O)[C@@H](C)CC [compound 1725] (Ac-IDIAAALR[R8]IGDAFN[S5]YYA-NH2; staple 9-16)	36.3	–
CC[C@H](C)[C@H](NC(C)=O)C(=O)N[C@@H](Cc1c[nH]c2ccccc12)C(=O)N[C@H](C(=O)N[C@@H](C)C(=O)N[C@@H](C)C(=O)N[C@@H](C)C(=O)N[C@@H](CC(C)C)C(=O)N[C@@H](CCCNC(=N)N)C(=O)N[C@]1(C)CCCCCCC=CCCC[C@@](C)(C(=O)N[C@@H](Cc2ccc(O)cc2)C(=O)N[C@@H](Cc2ccc(O)cc2)C(=O)N[C@@H](Cc2c[nH]cn2)C(N)=O)NC(=O)[C@H](CC(N)=O)NC(=O)[C@H](Cc2ccccc2)NC(=O)[C@H](C)NC(=O)[C@H](CC(=O)O)NC(=O)CNC(=O)[C@H]([C@@H](C)CC)NC1=O)[C@@H](C)CC [compound 1764] (Ac-IWIAAALR[R8]IGDAFN[S5]YYH-NH2; staple 9-16)	–	10.6
CC[C@H](C)[C@H](NC(C)=O)C(=O)N[C@@H](Cc1c[nH]c2ccccc12)C(=O)N[C@H](C(=O)N[C@@H](C)C(=O)N[C@@H](C)C(=O)N[C@@H](C)C(=O)N[C@@H](CC(C)C)C(=O)N[C@@H](CCCNC(=N)N)C(=O)N[C@]1(C)CCCCCCC=CCCC[C@@](C)(C(=O)N[C@@H](Cc2ccc(O)cc2)C(=O)N[C@@H](Cc2ccc(O)cc2)C(=O)N[C@@H](CCCCN)C(N)=O)NC(=O)[C@H](CC(N)=O)NC(=O)[C@H](Cc2ccccc2)NC(=O)[C@H](C)NC(=O)[C@H](CC(=O)O)NC(=O)CNC(=O)[C@H]([C@@H](C)CC)NC1=O)[C@@H](C)CC [compound 1766] (Ac-IWIAAALR[R8]IGDAFN[S5]YYK-NH2; staple 9-16)	–	6.6
CC[C@H](C)[C@H](NC(C)=O)C(=O)N[C@@H](Cc1c[nH]c2ccccc12)C(=O)N[C@H](C(=O)N[C@@H](C)C(=O)N[C@@H](CCC(N)=O)C(=O)N[C@@H](C)C(=O)N[C@@H](CC(C)C)C(=O)N[C@@H](CCCNC(=N)N)C(=O)N[C@]1(C)CCCCCCC=CCCCC2(CCCC=CCCC[C@](C)(C(=O)N[C@@H](C)C(N)=O)NC(=O)[C@H](C)NC(=O)[C@H](Cc3ccc(O)cc3)NC(=O)[C@H](Cc3ccc(O)cc3)NC2=O)NC(=O)[C@H](CC(N)=O)NC(=O)[C@H](Cc2ccccc2)NC(=O)[C@H](CCC(=O)O)NC(=O)[C@H](CC(=O)O)NC(=O)CNC(=O)[C@H]([C@@H](C)CC)NC1=O)[C@@H](C)CC (stereo partly shown) [compound 1784]	–	11.6

Now from value to compound:

Ki [1] [nM]	Ki [2] [nM]	Structure (SMILES)
15.4	–	CC[C@H](C)[C@H](NC(C)=O)C(=O)N[C@@H](Cc1c[nH]c2ccccc12)C(=O)N[C@H](C(=O)N[C@@H](C)C(=O)N[C@@H](CCC(N)=O)C(=O)N[C@@H](C)C(=O)N[C@@H](CC(C)C)C(=O)N[C@@H](CCCNC(=N)N)C(=O)N[C@]1(C)CCCCCCC=CCCC[C@@](C)(C(=O)N[C@@H](Cc2ccc(O)cc2)C(=O)N[C@@H](Cc2ccc(O)cc2)C(=O)N[C@@H](C)C(N)=O)NC(=O)[C@H](C)NC(=O)[C@H](Cc2ccccc2)NC(=O)[C@H](CCC(=O)O)NC(=O)[C@H](CC(=O)O)NC(=O)CNC(=O)[C@H]([C@@H](C)CC)NC1=O)[C@@H](C)CC [compound 1643] (Ac-IWIAQALR[R8]IGDEFA[S5]YYA-NH2; staple 9-16)
7.7	–	CC[C@H](C)[C@H](NC(C)=O)C(=O)N[C@@H](Cc1c[nH]c2ccccc12)C(=O)N[C@H](C(=O)N[C@@H](C)C(=O)N[C@@H](CCC(N)=O)C(=O)N[C@@H](C)C(=O)N[C@@H](CC(C)C)C(=O)N[C@@H](CCCNC(=N)N)C(=O)N[C@]1(C)CCCCCCC=CCCC[C@@](C)(C(=O)N[C@@H](Cc2ccc(O)cc2)C(=O)N[C@@H](Cc2ccc(O)cc2)C(=O)N[C@@H](C)C(N)=O)NC(=O)[C@H](CC(N)=O)NC(=O)[C@H](Cc2ccccc2)NC(=O)[C@H](C)NC(=O)[C@H](CC(=O)O)NC(=O)[C@H](C)NC(=O)[C@H]([C@@H](C)CC)NC1=O)[C@@H](C)CC [compound 1665] (Ac-IWIAQALR[R8]IADAFN[S5]YYA-NH2; staple 9-16)
4	–	CC[C@H](C)[C@H](NC(C)=O)C(=O)N[C@@H](Cc1c[nH]c2ccccc12)C(=O)N[C@H](C(=O)N[C@@H](C)C(=O)N[C@@H](CCC(N)=O)C(=O)N[C@@H](C)C(=O)N[C@@H](CC(C)C)C(=O)N[C@@H](CCCNC(=N)N)C(=O)N[C@]1(C)CCCCCCC=CCCC[C@@](C)(C(=O)N[C@@H](Cc2ccc(O)cc2)C(=O)N[C@@H](Cc2ccc(O)cc2)C(=O)N[C@@H](C)C(N)=O)NC(=O)[C@H](CC(N)=O)NC(=O)[C@H](Cc2ccccc2)NC(=O)[C@H](C)NC(=O)[C@H](CC(=O)O)NC(=O)CNC(=O)[C@H](CCCC(C)C)NC1=O)[C@@H](C)CC [compound 1702] (Ac-IWIAQALR[R8][X1]GDAFN[S5]YYA-NH2; staple 9-16)
7.7	–	CC[C@H](C)[C@H](NC(C)=O)C(=O)N[C@@H](Cc1c[nH]c2ccccc12)C(=O)NC1(C(=O)N[C@@H](C)C(=O)N[C@@H](CCC(N)=O)C(=O)N[C@@H](C)C(=O)N[C@@H](CC(C)C)C(=O)N[C@@H](CCCNC(=N)N)C(=O)N[C@]2(C)CCCCCCC=CCCC[C@@](C)(C(=O)N[C@@H](Cc3ccc(O)cc3)C(=O)N[C@@H](Cc3ccc(O)cc3)C(=O)N[C@@H](C)C(N)=O)NC(=O)[C@H](CC(N)=O)NC(=O)[C@H](Cc3ccccc3)NC(=O)[C@H](C)NC(=O)[C@H](CC(=O)O)NC(=O)CNC(=O)[C@H]([C@@H](C)CC)NC2=O)CCCCC1 [compound 1714] (Ac-IW[Ac6c]AQALR[R8]IGDAFN[S5]YYA-NH2; staple 9-16)
8.4	–	CC[C@H](C)[C@H](NC(C)=O)C(=O)N[C@@H](Cc1c[nH]c2ccccc12)C(=O)NC1(C(=O)N[C@@H](C)C(=O)N[C@@H](CCC(N)=O)C(=O)N[C@@H](C)C(=O)N[C@@H](CC(C)C)C(=O)N[C@@H](CCCNC(=N)N)C(=O)N[C@]2(C)CCCCCCC=CCCC[C@@](C)(C(=O)N[C@@H](Cc3ccc(O)cc3)C(=O)N[C@@H](Cc3ccc(O)cc3)C(=O)N[C@@H](C)C(N)=O)NC(=O)[C@H](CC(N)=O)NC(=O)[C@H](Cc3ccccc3)NC(=O)[C@H](C)NC(=O)[C@H](CC(=O)O)NC(=O)CNC(=O)[C@H]([C@@H](C)CC)NC2=O)CCCC1 [compound 1715] (Ac-IW[Ac5c]AQALR[R8]IGDAFN[S5]YYA-NH2; staple 9-16)
